Test results published in US10906873B2, “Substituted cyclic amides as herbicides” (FMC Corporation, priority 2015, dated 2021).

Tests used:
Assay type in all cases: in vivo
kochia (Kochia scoparia) [1] = assay: Test A postemergence, kochia; details: 0 to 100 scale
Description: (§1) Seeds of plant species selected from barnyardgrass (Echinochloa crus-galli), crabgrass (large crabgrass, Digitaria sanguinalis), kochia (Kochia scoparia), ragweed (common ragweed, Ambrosia elatior), morningglory (Ipomoea spp.), velvetleaf (Abutilon theophrasti), ryegrass, It. (Italian ryegrass, Lolium multiflorum), foxtail, giant (giant foxtail, Setaria faberii), wheat (Triticum aestivum), corn (Zea mays), and pigweed (Amaranthus retroflexus), were planted into a blend of loam soil and sand and treated preemergence with a directed soil spray using test chemicals formulated in a non-phytotoxic solvent mixture which included a surfactant. At the same time, plants selected from these crop and weed species and also blackgrass (Alopecurus myosuroides), and galium (catchweed bedstraw, Galium aparine), were planted in pots containing the same blend of loam soil and sand and treated with postemergence applications of test chemicals formulated in the same manner. Plants ranged in height from 2 to 10 cm and were in the one- to two-leaf stage for the postemergence treatment. Treated plants and untreated controls were maintained in a greenhouse for approximately 10 d, after which time all treated plants were compared to untreated controls and visually evaluated for injury. Plant response ratings, summarized in Table A, are based on a 0 to 100 scale where 0 is no effect and 100 is complete control. A dash (-) response means no test result.

[2] = tested on: wheat (Triticum aestivum); assay: Test A postemergence, wheat; details: 0 to 100 scale
Description: as §1

[3] = tested on: ducksalad (Heteranthera limosa); assay: Test B flooded paddy test, ducksalad; details: Flood, scale of 0 to 100 where 0 is no effect and 100 is complete control, 13 to 15 d
Experimental: (§2) Plant species in the flooded paddy test selected from rice (Oryza sativa), sedge, umbrella (small-flower umbrella sedge, Cyperus difformis), ducksalad (Heteranthera limosa), and barnyardgrass (Echinochloa crus-galli) were grown to the 2-leaf stage for testing. At time of treatment, test pots were flooded to 3 cm above the soil surface, treated by application of test compounds directly to the paddy water, and then maintained at that water depth for the duration of the test. Treated plants and controls were maintained in a greenhouse for 13 to 15 d, after which time all species were compared to controls and visually evaluated. Plant response ratings, summarized in Table B, are based on a scale of 0 to 100 where 0 is no effect and 100 is complete control. A dash (-) response means no test result.

[4] = tested on: ryegrass, It. (Italian ryegrass, Lolium multiflorum); assay: Test A postemergence, ryegrass, It.; details: 0 to 100 scale
Description: as §1

rice (Oryza sativa) = assay: Test B flooded paddy test, rice; details: Flood, scale of 0 to 100 where 0 is no effect and 100 is complete control, 13 to 15 d
Experimental: as §2

[5] = tested on: barnyardgrass (Echinochloa crus-galli); assay: Test B flooded paddy test, barnyardgrass; details: Flood, scale of 0 to 100 where 0 is no effect and 100 is complete control, 13 to 15 d
Experimental: as §2

kochia (Kochia scoparia) [6] = assay: Test A preemergence, kochia; details: 0 to 100 scale
Description: as §1

[7] = tested on: blackgrass (Alopecurus myosuroides); assay: Test A postemergence, blackgrass; details: 0 to 100 scale
Description: as §1

[8] = tested on: foxtail, giant (giant foxtail, Setaria faberii); assay: Test A preemergence, foxtail, giant; details: 0 to 100 scale
Description: as §1

[9] = tested on: barnyardgrass (Echinochloa crus-galli); assay: Test A preemergence, barnyardgrass; details: 0 to 100 scale
Description: as §1

[10] = tested on: ragweed (common ragweed, Ambrosia elatior); assay: Test A preemergence, ragweed; details: 0 to 100 scale
Description: as §1

[11] = tested on: barnyardgrass (Echinochloa crus-galli); assay: Test A postemergence, barnyardgrass; details: 0 to 100 scale
Description: as §1

[12] = tested on: ragweed (common ragweed, Ambrosia elatior); assay: Test A postemergence, ragweed; details: 0 to 100 scale
Description: as §1

[13] = tested on: pigweed (Amaranthus retroflexus); assay: Test A preemergence, pigweed; details: 0 to 100 scale
Description: as §1

[14] = tested on: ryegrass, It. (Italian ryegrass, Lolium multiflorum); assay: Test A preemergence, ryegrass, It.; details: 0 to 100 scale
Description: as §1

corn (Zea mays) = assay: Test A postemergence, corn; details: 0 to 100 scale
Description: as §1

[15] = tested on: galium (catchweed bedstraw, Galium aparine); assay: Test A postemergence, galium; details: 0 to 100 scale
Description: as §1

[16] = tested on: foxtail, giant (giant foxtail, Setaria faberii); assay: Test A postemergence, foxtail, giant; details: 0 to 100 scale
Description: as §1

[17] = tested on: sedge, umbrella (small-flower umbrella sedge, Cyperus difformis); assay: Test B flooded paddy test, sedge, umbrella; details: Flood, scale of 0 to 100 where 0 is no effect and 100 is complete control, 13 to 15 d
Experimental: as §2

[18] = tested on: pigweed (Amaranthus retroflexus); assay: Test A postemergence, pigweed; details: 0 to 100 scale
Description: as §1

Compound | Plant response rating, Kochia (kochia (Kochia scoparia) [1]; 125 g ai/ha) | Plant response rating, Kochia (kochia (Kochia scoparia) [1]; 500 g ai/ha) | Plant response rating, Wheat ([2]; 125 g ai/ha) | Plant response rating, Wheat ([2]; 500 g ai/ha) | Plant response rating, Ryegrass, It. ([4]; 125 g ai/ha) | Plant response rating, Ryegrass, It. ([4]; 500 g ai/ha) | Plant response rating, Kochia (kochia (Kochia scoparia) [6]; 125 g ai/ha) | Plant response rating, Kochia (kochia (Kochia scoparia) [6]; 500 g ai/ha) | Plant response rating, Blackgrass ([7]; 125 g ai/ha) | Plant response rating, Blackgrass ([7]; 500 g ai/ha) | Plant response rating, Foxtail, Giant ([8]; 125 g ai/ha) | Plant response rating, Foxtail, Giant ([8]; 500 g ai/ha) | Plant response rating, Barnyardgrass ([9]; 125 g ai/ha) | Plant response rating, Barnyardgrass ([9]; 500 g ai/ha) | Plant response rating, Ragweed ([10]; 125 g ai/ha) | Plant response rating, Ragweed ([10]; 500 g ai/ha) | Plant response rating, Barnyardgrass ([11]; 125 g ai/ha) | Plant response rating, Barnyardgrass ([11]; 500 g ai/ha) | Plant response rating, Ragweed ([12]; 125 g ai/ha) | Plant response rating, Ragweed ([12]; 500 g ai/ha) | also measured
O=C1NCC(/C=C/c2ccccc2)C1C(=O)Nc1cccc(F)c1F (stereo not drawn) [Compound 33, N-(2,3-difluorophenyl)-2-oxo-4-[(1E)-2-phenylethenyl]-3-pyrrolidinecarboxamide] | 0 | 0 | 0 | 0 | 0 | 0 | 0 | 20 | 0 | 0 | 50 | 90 | 50 | 90 | 0 | 0 | 50 | 90 | 10 | 10 | Plant response rating, Ducksalad ([3]; 250 g ai/ha): 95; Plant response rating, Rice (rice (Oryza sativa); 250 g ai/ha): 0; Plant response rating, Barnyardgrass ([5]; 250 g ai/ha): 40; Plant response rating, Pigweed ([13]; 125 g ai/ha): 0; Plant response rating, Pigweed ([13]; 500 g ai/ha): 0; Plant response rating, Ryegrass, It. ([14]; 125 g ai/ha): 0; Plant response rating, Ryegrass, It. ([14]; 500 g ai/ha): 0; Plant response rating, Corn (corn (Zea mays); 125 g ai/ha): 0; Plant response rating, Corn (corn (Zea mays); 500 g ai/ha): 0; Plant response rating, Galium ([15]; 125 g ai/ha): 0; Plant response rating, Galium ([15]; 500 g ai/ha): 0; Plant response rating, Foxtail, Giant ([16]; 125 g ai/ha): 70; Plant response rating, Foxtail, Giant ([16]; 500 g ai/ha): 70; Plant response rating, Sedge, Umbrella ([17]; 250 g ai/ha): 0; Plant response rating, Pigweed ([18]; 125 g ai/ha): 0; Plant response rating, Pigweed ([18]; 500 g ai/ha): 0
O=C1NCC(/C=C/c2ccccc2)C1C(=O)Nc1ccccc1F (stereo not drawn) [Compound 32] | 0 | 0 | 0 | 0 | 0 | 0 | 0 | 0 | 0 | 0 | 0 | 80 | 20 | 60 | 0 | 0 | 40 | 90 | 10 | 10 | Plant response rating, Ducksalad ([3]; 250 g ai/ha): 70; Plant response rating, Rice (rice (Oryza sativa); 250 g ai/ha): 0; Plant response rating, Barnyardgrass ([5]; 250 g ai/ha): 0; Plant response rating, Pigweed ([13]; 125 g ai/ha): 0; Plant response rating, Pigweed ([13]; 500 g ai/ha): 0; Plant response rating, Ryegrass, It. ([14]; 125 g ai/ha): 0; Plant response rating, Ryegrass, It. ([14]; 500 g ai/ha): 0; Plant response rating, Corn (corn (Zea mays); 125 g ai/ha): 20; Plant response rating, Corn (corn (Zea mays); 500 g ai/ha): 20; Plant response rating, Galium ([15]; 125 g ai/ha): 0; Plant response rating, Galium ([15]; 500 g ai/ha): 0; Plant response rating, Foxtail, Giant ([16]; 125 g ai/ha): 20; Plant response rating, Foxtail, Giant ([16]; 500 g ai/ha): 80; Plant response rating, Sedge, Umbrella ([17]; 250 g ai/ha): 0; Plant response rating, Pigweed ([18]; 125 g ai/ha): 0; Plant response rating, Pigweed ([18]; 500 g ai/ha): 0
O=C1NCC(CCc2ccccc2)C1C(=O)Nc1cccc(F)c1F (stereo not drawn) [Compound 35, N-(2,3-difluorophenyl)-2-oxo-4-(2-phenylethyl)-3-pyrrolidinecarboxamide] | 0 | 0 | 0 | 0 | 0 | 0 | 0 | 50 | 0 | 0 | 0 | 60 | 0 | 30 | 0 | 0 | 0 | 30 | 0 | 0 | Plant response rating, Ducksalad ([3]; 250 g ai/ha): 70; Plant response rating, Rice (rice (Oryza sativa); 250 g ai/ha): 0; Plant response rating, Barnyardgrass ([5]; 250 g ai/ha): 0; Plant response rating, Pigweed ([13]; 125 g ai/ha): 0; Plant response rating, Pigweed ([13]; 500 g ai/ha): 0; Plant response rating, Ryegrass, It. ([14]; 125 g ai/ha): 0; Plant response rating, Ryegrass, It. ([14]; 500 g ai/ha): 0; Plant response rating, Corn (corn (Zea mays); 125 g ai/ha): 0; Plant response rating, Corn (corn (Zea mays); 500 g ai/ha): 0; Plant response rating, Galium ([15]; 125 g ai/ha): 0; Plant response rating, Galium ([15]; 500 g ai/ha): 0; Plant response rating, Foxtail, Giant ([16]; 125 g ai/ha): 0; Plant response rating, Foxtail, Giant ([16]; 500 g ai/ha): 30; Plant response rating, Sedge, Umbrella ([17]; 250 g ai/ha): 0; Plant response rating, Pigweed ([18]; 125 g ai/ha): 0; Plant response rating, Pigweed ([18]; 500 g ai/ha): 0
O=C1NCC(Cc2ccc(F)c(F)c2)C1C(=O)Nc1cccc(F)c1F (stereo not drawn) [Compound 12] | 0 | 0 | 0 | 0 | 0 | 0 | 0 | 0 | 0 | 0 | 0 | 60 | 0 | 60 | 0 | 0 | 0 | 0 | 0 | 0 | Plant response rating, Ducksalad ([3]; 500 g ai/ha): 0; Plant response rating, Rice (rice (Oryza sativa); 500 g ai/ha): 0; Plant response rating, Barnyardgrass ([5]; 500 g ai/ha): 0; Plant response rating, Pigweed ([13]; 125 g ai/ha): 0; Plant response rating, Pigweed ([13]; 500 g ai/ha): 0; Plant response rating, Ryegrass, It. ([14]; 125 g ai/ha): 0; Plant response rating, Ryegrass, It. ([14]; 500 g ai/ha): 0; Plant response rating, Corn (corn (Zea mays); 125 g ai/ha): 0; Plant response rating, Corn (corn (Zea mays); 500 g ai/ha): 0; Plant response rating, Galium ([15]; 125 g ai/ha): 0; Plant response rating, Galium ([15]; 500 g ai/ha): 0; Plant response rating, Foxtail, Giant ([16]; 125 g ai/ha): 0; Plant response rating, Foxtail, Giant ([16]; 500 g ai/ha): 0; Plant response rating, Sedge, Umbrella ([17]; 500 g ai/ha): 0; Plant response rating, Pigweed ([18]; 125 g ai/ha): 0; Plant response rating, Pigweed ([18]; 500 g ai/ha): 0
O=C1NCC(CCc2ccccc2)C1C(=O)Nc1ccccc1F (stereo not drawn) [Compound 20] | 0 | 0 | 0 | 0 | 0 | 0 | 0 | 0 | 0 | 0 | 0 | 0 | 0 | 0 | 0 | 0 | 0 | 0 | 0 | 0 | Plant response rating, Ducksalad ([3]; 250 g ai/ha): 50; Plant response rating, Rice (rice (Oryza sativa); 250 g ai/ha): 0; Plant response rating, Barnyardgrass ([5]; 250 g ai/ha): 0; Plant response rating, Pigweed ([13]; 125 g ai/ha): 0; Plant response rating, Pigweed ([13]; 500 g ai/ha): 0; Plant response rating, Ryegrass, It. ([14]; 125 g ai/ha): 0; Plant response rating, Ryegrass, It. ([14]; 500 g ai/ha): 0; Plant response rating, Corn (corn (Zea mays); 125 g ai/ha): 0; Plant response rating, Corn (corn (Zea mays); 500 g ai/ha): 0; Plant response rating, Galium ([15]; 125 g ai/ha): 0; Plant response rating, Galium ([15]; 500 g ai/ha): 0; Plant response rating, Foxtail, Giant ([16]; 125 g ai/ha): 0; Plant response rating, Foxtail, Giant ([16]; 500 g ai/ha): 0; Plant response rating, Sedge, Umbrella ([17]; 250 g ai/ha): 0; Plant response rating, Pigweed ([18]; 125 g ai/ha): 0; Plant response rating, Pigweed ([18]; 500 g ai/ha): 0
